Reference: patent publication US20090221559A1 (priority 2005, published 2009)
Read-outs that look alike come from different tables or passages of the source.

Columns and labels:
[1] = target: T1, HCV NS5B polymerase (His-tagged, C-terminal 21 amino acid deleted NS5B, HC-J4) (Hepatitis C virus genotype 1b, UniProt O92972); test: NS5b polymerase assay (biochemical RdRp assay, 3H-GTP incorporation, SPA beads); design: species or system HCV genotype 1b
T1 construct: The cDNA encoding NS5B amino acid 1-570 (HC-J4, genotype 1b); His tag (His6, from pET-21b) (C); made in house; host or cells: E. coli BL21 (DE3)
T1 sequence (O92972 2417-3000, looked up, stated change not applied): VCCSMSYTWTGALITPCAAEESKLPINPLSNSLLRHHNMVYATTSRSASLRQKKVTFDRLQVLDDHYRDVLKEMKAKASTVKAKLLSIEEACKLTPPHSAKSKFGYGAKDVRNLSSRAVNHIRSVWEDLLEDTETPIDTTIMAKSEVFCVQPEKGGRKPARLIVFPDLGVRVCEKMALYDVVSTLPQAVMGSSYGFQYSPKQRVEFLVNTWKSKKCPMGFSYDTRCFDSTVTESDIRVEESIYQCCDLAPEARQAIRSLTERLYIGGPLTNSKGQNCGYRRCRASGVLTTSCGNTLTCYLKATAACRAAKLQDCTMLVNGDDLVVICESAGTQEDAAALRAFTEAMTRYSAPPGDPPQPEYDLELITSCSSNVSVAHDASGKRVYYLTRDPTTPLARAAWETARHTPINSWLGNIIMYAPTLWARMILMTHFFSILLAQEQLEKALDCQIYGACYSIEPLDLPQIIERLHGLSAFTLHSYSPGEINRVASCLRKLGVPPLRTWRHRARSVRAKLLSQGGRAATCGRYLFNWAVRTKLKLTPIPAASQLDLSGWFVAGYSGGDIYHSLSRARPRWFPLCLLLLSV
How it was run: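 3H-GTP incorporation into newly made RNA was captured on SPA beads added in EDTA after 2 h at 25 °C. Compounds in DMSO met preformed enzyme–template complex (200 nM truncated His-NS5B, HC-J4 1b; biotin-oligo(rG13)/poly(rC)) for 15 min at RT, then 600 nM GTP, 5 mM MgCl2, Tris pH 7.5 started polymerization.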

[2] = test system: HCV replicon RNA replication in Huh-7 luc/neo (Huh-Luc) cells; test: HCV replicon assay (stable replicon cell reporter assay, luciferase read-out); format: cell-based, HCV type 1b
How it was run: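 Three-day compound exposure used Huh-Luc cells, which harbour an autonomously replicating genotype 1b NS3-NS5B replicon expressing luciferase and neo^R. Luciferase signal served as the replication read-out, and dose-response curves came from several concentrations per compound.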

[3] = NS5B Polymerase Assay IC50, 200 nM enzyme, 3H-GTP incorporation, 2 h at 25° C.
[4] = Hepatitis C virus, Huh-7, 72 h, read-out: Replicon Assay EC50, Huh-Luc cells, three days incubation, luciferase activity
[5] = 200 nM enzyme, 3H-GTP incorporation, 2 h at 25° C., read-out: NS5B Polymerase Assay IC50
[6] = Huh-Luc cells, three days incubation, luciferase activity, read-out: Replicon Assay EC50
[7] = NS5B Polymerase Assay IC50 (μM)
[8] = Hepatitis C virus, Huh-7, 72 h, read-out: Replicon Assay EC50 (μM), Huh-Luc cells, incubation of three days, luciferase activity

| SMILES | IC50 [1, 3] | EC50 [2, 4] | IC50 [1, 7] | EC50 [2, 8] | also measured |
| --- | --- | --- | --- | --- | --- |
| CC1(C)CC(=O)C2=C(C1)Nc1ccccc1N(C(=O)C1CC1)C2c1ccc(Cl)cc1Cl (stereo not drawn) [compound 53] | 19.7 µM | > 32 µM | – | – | – |
| CCCCCC(=O)N1c2ccccc2NC2=C(C(=O)CC(c3ccc(OC)c(OC)c3)C2)C1c1cccc(Cl)c1 (mixture of isomers) [compound 205] | – | – | – | – | IC50 [1, 5]: > 33.3 µM; EC50 [2, 6]: 9.96 µM |
| CCOc1cc(C2Nc3ccccc3NC3=C2C(=O)CC(c2ccc(OC)cc2)C3)ccc1OC(C)=O (stereo not drawn) [compound 386] | – | – | > 42.7 µM | > 29.6 µM | – |
| CC(=O)N1c2ccccc2NC2=C(C(=O)CC(C)(C)C2)C1c1cc(Cl)cc(Cl)c1 (stereo not drawn) [compound 133, 10-acetyl-11-[3,5-dichlorophenyl]-3,3-dimethyl-2,3,4,5,10,11-hexahydro-1H-dibenzo[b,e][1,4]diazepin-1-one] | > 133 µM | 11 µM | – | – | – |
| CCC(C)Oc1ccccc1C1C2=C(CC(c3ccc(OC)c(OC)c3)CC2=O)Nc2ccccc2N1C(=O)c1ccccc1 (stereo not drawn) [compound 183] | > 42.7 µM | 1.32 µM | – | – | – |
| COc1ccc(C2CC(=O)C3=C(C2)Nc2ccccc2NC3c2ccc(Cl)cc2)cc1OC (stereo not drawn) [compound 415] | – | – | > 33.3 µM | 14.7 µM | – |
| CCCCOc1ccc(C2C3=C(CC(C)(C)CC3=O)Nc3ccccc3N2C(=O)c2ccccc2)cc1 (stereo not drawn) [compound 91] | > 42.7 µM | 8.14 µM | – | – | – |
| CC1(C)CC(=O)C2=C(C1)Nc1ccccc1N(C(=O)c1ccccc1)C2c1ccccc1Cl (stereo not drawn) [compound 70] | > 42.7 µM | 14.6 µM | – | – | – |
| CC1(C)CC(=O)C2=C(C1)Nc1ccccc1NC2c1coc2c(Cl)cc(Cl)cc2c1=O (stereo not drawn) [compound 502] | – | – | > 42.7 µM | 13.2 µM | – |
| COc1ccc(C2CC(=O)C3=C(C2)Nc2ccccc2NC3c2ccccc2Br)cc1 (stereo not drawn) [compound 390] | – | – | > 42.7 µM | 9.07 µM | – |
| CC1(C)CC(=O)C2=C(C1)Nc1ccccc1N(C(=O)C(F)(F)F)C2c1ccc(OCc2ccccc2)cc1 (stereo not drawn) [compound 52] | > 42.7 µM | 7.44 µM | – | – | – |
| CC1(C)CC(=O)C2=C(C1)Nc1ccccc1N(C(=O)C(F)(F)F)C2c1cccc([N+](=O)[O-])c1 (stereo not drawn) [compound 47] | > 42.7 µM | 16.4 µM | – | – | – |
| CCC(=O)N1c2ccccc2NC2=C(C(=O)CC(C)(C)C2)C1c1ccc(OC)c(OC)c1 (stereo not drawn) [compound 84] | > 42.7 µM | 20.9 µM | – | – | – |
| CC(=O)N1c2ccccc2NC2=C(C(=O)CC(c3ccccc3OCc3ccccc3)C2)C1C(Br)=Cc1ccccc1 (mixture of isomers) [compound 299] | > 133 µM | 2.36 µM | – | – | – |
| CCC(=O)N1c2ccccc2NC2=C(C(=O)CC(C)(C)C2)C1c1c(Cl)cccc1Cl (stereo not drawn) [compound 46] | > 42.7 µM | 11.1 µM | – | – | – |
| CC1(C)CC(=O)C2=C(C1)Nc1ccccc1N(C(=O)C(F)(F)F)C2c1ccc(-c2ccc([N+](=O)[O-])cc2)o1 (stereo not drawn) [compound 257] | > 42.7 µM | 22.4 µM | – | – | – |
| CC(C)C(=O)N1c2ccccc2NC2=C(C(=O)CC(C)(C)C2)C1c1ccc(C(F)(F)F)cc1 (stereo not drawn) [compound 5] | > 42.7 µM | 19.9 µM | – | – | – |
| Cc1ccc(C2CC(=O)C3=C(C2)Nc2ccccc2NC3c2ccc(C)cc2)cc1 (stereo not drawn) [compound 408] | – | – | > 33.3 µM | 14.2 µM | – |
| COc1ccc(OC)c(C2C3=C(CC(C)(C)CC3=O)Nc3ccccc3N2C(=O)C(F)(F)F)c1 (stereo not drawn) [compound 3] | > 42.7 µM | > 32 µM | – | – | – |
| CC(C)C(=O)N1c2ccccc2NC2=C(C(=O)CC(C)(C)C2)C1c1cccs1 (stereo not drawn) [compound 243] | > 33.3 µM | 25.5 µM | – | – | – |
| O=C1CC(c2ccccc2OCc2ccccc2)CC2=C1C(C(Br)=Cc1ccccc1)Nc1ccccc1N2 (mixture of isomers) [compound 497] | – | – | > 133 µM | 3.79 µM | – |
| COc1ccc([C@@H]2CC(=O)C3=C(C2)Nc2ccccc2N[C@H]3c2coc3ccccc3c2=O)cc1OC [compound 495] | – | – | > 42.7 µM | 3.69 µM | – |
| COc1ccc(C2C3=C(CC(C)(C)CC3=O)Nc3ccccc3N2C(=O)CC(C)C)c(OC)c1 (stereo not drawn) [compound 30] | > 42.6 µM | 23 µM | – | – | – |

| SMILES | IC50 [1, 3] | EC50 [2, 4] | IC50 [1, 7] | EC50 [2, 8] | also measured |
| --- | --- | --- | --- | --- | --- |
| CCn1c2ccccc2c2cc([C@@H]3Nc4ccccc4NC4=C3C(=O)C[C@@H](c3ccc(Cl)cc3)C4)ccc21 [compound 480] | – | – | > 42.7 µM | 5.7 µM | – |
| COc1ccc(C2C3=C(CC(C)(C)CC3=O)Nc3ccccc3N2C(=O)C(F)(F)F)cc1OC (stereo not drawn) [compound 106] | > 42.7 µM | > 32 µM | – | – | – |
| COc1ccc(C2CC(=O)C3=C(C2)Nc2ccccc2NC3c2ccc(Cl)c([N+](=O)[O-])c2)cc1 (stereo not drawn) [compound 389] | – | – | > 42.7 µM | 5.58 µM | – |
| O=C1CC(c2ccccc2)CC2=C1C(c1ccccc1Br)Nc1ccccc1N2 (stereo not drawn) [compound 345] | – | – | > 42.7 µM | 21 µM | – |
| CCC(=O)N1c2ccccc2NC2=C(C(=O)CC(C)(C)C2)C1c1ccc(Br)s1 (stereo not drawn) [compound 249] | > 42.7 µM | 3.66 µM | – | – | – |
| CN(C)c1ccc(C2Nc3ccccc3NC3=C2C(=O)CC(c2ccc(Cl)cc2)C3)cc1 (stereo not drawn) [compound 364] | – | – | > 42.7 µM | 20.8 µM | – |
| CC(=O)N1c2ccccc2NC2=C(C(=O)CC(C)(C)C2)C1c1ccccn1 (stereo not drawn) [compound 281] | > 42.7 µM | > 32 µM | – | – | – |
| CCCCCC(=O)N1c2ccccc2NC2=C(C(=O)CC(c3ccccc3)C2)C1c1ccccc1F (stereo not drawn) [compound 224] | – | – | – | – | IC50 [1, 5]: > 33.3 µM; EC50 [2, 6]: 16.1 µM |
| CCOc1cc(C2Nc3ccccc3NC3=C2C(=O)CC(c2ccc(OC)cc2)C3)cc(Br)c1OC (stereo not drawn) [compound 406] | – | – | > 42.7 µM | 7.29 µM | – |
| CC(C)Oc1ccc(C2C3=C(CC(C)(C)CC3=O)Nc3ccccc3N2C(=O)C(F)(F)F)cc1 (stereo not drawn) [compound 100] | > 42.7 µM | 3.6 µM | – | – | – |
| Cc1ccc(C2CC(=O)C3=C(C2)Nc2ccccc2N(C(=O)c2ccccc2)C3c2ccccc2)cc1 (mixture of isomers) [compound 209] | – | – | – | – | IC50 [1, 5]: > 33.3 µM; EC50 [2, 6]: 11.8 µM |
| CC(=O)N1c2ccccc2NC2=C(C(=O)CC(C)(C)C2)C1c1ccc(Oc2ccccc2)cc1 (stereo not drawn) [compound 134, 10-acetyl-11-(4-phenoxyphenyl)-3,3-dimethyl-2,3,4,5,10,11-hexahydro-1H-dibenzo[b,e][1,4]diazepin-1-one] | 47.3 µM | 4.64 µM | – | – | – |
| CCOc1cc(C2Nc3ccccc3NC3=C2C(=O)CC(c2ccc(OC)c(OC)c2)C3)cc(Br)c1O (stereo not drawn) [compound 399] | – | – | > 42.7 µM | 19.4 µM | – |
| CC1(C)CC(=O)C2=C(C1)Nc1ccccc1NC2c1c(Cl)cc(OCc2ccccc2)cc1Cl (stereo not drawn) [compound 447, 11-(4-benzyloxy-2,6-dichlorophenyl)-3,3-dimethyl-2,3,4,5,10,11-hexahydro-1H-dibenzo[b,e][1,4]diazepin-1-one] | – | – | > 133 µM | 2.52 µM | – |
| CCC(=O)N1c2ccccc2NC2=C(C(=O)CC(c3ccc(OC)c(OC)c3)C2)C1c1ccc(Cl)cc1 (stereo not drawn) [compound 228] | – | – | – | – | IC50 [1, 5]: > 33.3 µM; EC50 [2, 6]: 17.2 µM |
| COc1ccc(C2Nc3ccc(C(=O)c4ccccc4)cc3NC3=C2C(=O)CC(C)(C)C3)cc1OC (stereo not drawn) [compound 453] | – | – | > 42.7 µM | 19.2 µM | – |
| CCCCC(=O)N1c2ccccc2NC2=C(C(=O)CC(C)(C)C2)C1c1ccc(OC)cc1OC (stereo not drawn) [compound 1] | > 42.7 µM | 8.53 µM | – | – | – |
| CCCCCC(=O)N1c2ccccc2NC2=C(C(=O)CC(C)(C)C2)C1c1ccccc1OCc1ccccc1 (stereo not drawn) [compound 6] | > 42.7 µM | 7.32 µM | – | – | – |
| O=C1CC(c2ccc(Cl)cc2)CC2=C1C(c1cccc(Cl)c1Cl)Nc1ccccc1N2 (stereo not drawn) [compound 346] | – | – | > 42.7 µM | 24.6 µM | – |
| COc1ccc(C2CC(=O)C3=C(C2)Nc2ccccc2NC3c2cc([N+](=O)[O-])ccc2Cl)cc1 (stereo not drawn) [compound 375] | – | – | > 42.7 µM | 19.9 µM | – |
| O=C1CC(c2ccc(Cl)cc2)CC2=C1C(c1ccccc1Cl)Nc1ccccc1N2 (stereo not drawn) [compound 340] | – | – | > 42.7 µM | 5.09 µM | – |
| COc1ccc(C2CC(=O)C3=C(C2)Nc2ccccc2NC3c2ccc(N(C)C)cc2)cc1 (stereo not drawn) [compound 328] | – | – | > 42.7 µM | 22.7 µM | – |
